Experimental data as given in patent US9572786B2, “Use of capsiate or dihydrocapsidate” (Catholic University Industry Academy Cooperation Foundation, priority 2007, dated 2017).

How the values were obtained:
ERK = assay: MAPK signaling after UV, Western blotting: ERK; type: cell-based, human; details: HaCaT cells; 10, 25, 50 μM; 30 minutes after UV irradiation
Procedure: (§1) Western blotting was performed in the same manner as in Example 2-1 in order to identify the factor that affects the COX-2 expression regulated by capsiate, except for treating the cells with capsiate at different concentrations (10 μM, 25 μM and 50 μM) prior to UV irradiation, and using rabbit anti-ERK antibody, rabbit anti-p-ERK antibody, rabbit anti-p38 antibody, rabbit anti-p-p38 antibody, rabbit anti-JNK antibody and rabbit anti-p-JNK antibody (cell signaling), and anti-rabbit IgG-HRP conjugation antibody (Zymed) as the secondary antibody, 30 minutes after UV irradiation.

JNK = assay: MAPK signaling after UV, Western blotting: JNK; type: cell-based, human; details: HaCaT cells; 10, 25, 50 μM; 30 minutes after UV irradiation
Procedure: as §1

VEGF = assay: UV-induced VEGF expression, immunohistochemical staining; type: cell-based, human; details: HaCaT cells; 25 μM; UV 100 J/m^2; 24 hours
Procedure: First, the inhibition effect of capsiate on the expression of VEGF, the typical intracellular angiogenesis factor, was evaluated by immunohistochemical staining in order to investigate the inhibition effect of capsiate on angiogenesis.
HaCaT cells were placed on a 14 mm culture slide and cultured for 24 hours in DMEM containing 10% FBS. Subsequently, the cells were cultured for 24 hours in DMEM containing 1% FBS until starvation. Then, after treating with 25 μM capsiate for 30 minutes, followed by washing 3 times with PBS, UV was irradiated at an intensity of 100 J/m^2. Immediately after the UV irradiation, the cells were washed again with PBS and further cultured for 24 hours in DMEM containing 1% FBS, which was treated with capsiate at the same concentration as in the pre-treatment. The cells were fixed for 5 minutes using methanol and immunohistochemical staining was carried out in the same manner as in Example 2-3. For VEGF detection, rabbit anti-VEGF IgG antibody (Santa Cruz, USA) and Alexa 488-labeled anti-rabbit-IgG secondary antibody (Invitrogen, USA) were used.

MMP-9 = assay: UV-induced MMP-9 mRNA expression, RT-PCR; type: cell-based, human; details: HaCaT cells; 10, 25, 50 μM; UV 100 J/m^2; 36 hours
Procedure: The inhibition effect of capsiate on the expression of MMP-2 and MMP-9, which induce angiogenesis, was investigated through measurement of mRNA expression by RT-PCR and protein expression and activity measurement by zymography.
In order to investigate the inhibition effect of capsiate on MMP expression, 5×10^5 HaCaT cells were placed on a 60 mm Petri dish and cultured for 24 hours in DMEM containing 10% FBS. Subsequently, the cells were cultured for 24 hours in DMEM containing 1% FBS until starvation. Then, after treating with capsiate at different concentrations (10 μM, 25 μM, 50 μM) for 30 minutes, followed by washing 3 times with PBS, UV was irradiated at an intensity of 100 J/m^2. Immediately after the UV irradiation, the cells were washed again with PBS and further cultured for 36 hours in DMEM containing 1% FBS, which was treated with capsiate at the same concentration as in the pre-treatment. The degree of intracellular mRNA expression for MMP-2 and MMP-9 was measured by RT-PCR in the same manner as in Example 3. The degree of MMP expression was compared with that of the non-treated group.

hairless mouse (SKH-1) = assay: UV-induced skin damage in hairless mouse (observation, hematoxylin-eosin staining); type: in vivo; details: 200 μL of 1 mM in acetone topically every 24 hours, UV 2.5 kJ/m^2 4 times
Procedure: In order to confirm the in vitro experiment result performed on the human keratinocyte HaCaT cells in an animal model, experiment was carried out as follows using hairless mouse (SKH-1). Test groups were as follows: non-treated group—treated with acetone only without UV irradiation; test group A—treated with 200 μL of 1 mM capsiate dissolved in acetone every 24 hours without UV irradiation; control group—treated with UV and acetone; test group B—treated with UV and 200 μL of 1 mM capsiate dissolved in acetone every 24 hours (Unspecified conditions are the same as in Examples 5-7.).
Capsiate was applied on the back of the mouse. 1 hour later, UV was irradiated at an intensity of 2.5 kJ/m^2. 1 hour later, capsiate was applied again at the same concentration in order to prevent rash which may occur immediately after UV irradiation. Thereafter, capsiate was applied every 24 hours and UV irradiation was carried out every other day at an intensity of 2.5 kJ/m^2 for 4 times. In order to investigate the change of tissue and intracellular mechanism (signaling), the mouse was euthanized 1 hour after the final UV irradiation. Skin tissue was taken from the back of the mouse and subjected to skin biopsy following observation.
Hematoxylin-eosin staining was carried out in order to investigate the overall change in the skin tissue.

Ki67 = Ki67 expression in mouse skin, immunohistochemical staining; type: in vivo; details: mouse skin tissue of Example 5
Procedure: In order to investigate the effect of capsiate on various intracellular angiogenesis-related expression factors, the inhibition effect of capsiate on angiogenesis factors induced by UV was evaluated using the mouse tissue of Example 5.
Mouse skin tissue obtained by skin biopsy was immersed in OCT compound (Sakura Finetechnical Co. Ltd, Japan) and slowly frozen in liquid nitrogen. Thus prepared tissue was sliced with a thickness of 7 μm and fixed on a slide using acetone. The tissue was washed with distilled water and PBS and, after blocking for 1 hour using 10% normal goat serum, incubated at 4° C. for at least 16 hours using ki67 antibody (1:100, Neomarker, USA). After washing 3 times with PBS, the tissue was treated with Alexa 488-conjugated secondary antibody (Invitrogen, USA) for 30 minutes and then washed 3 times. The tissue was mounted and observed under a fluorescence microscope (Carl Zeiss, USA).

hairless mouse = assay: Change of mouse skin tissue after UV, hematoxylin-eosin staining; type: in vivo; details: 4 times of UV irradiation every other day at 2.5 kJ/m^2
Procedure: When the skin is exposed to UV, erythema, or […] of the skin, occurs accompanied by edema, prior to a variety of cellular changes including inflammation, apoptosis, carcinogenesis, or the like [Tadashi Terui, Hachiro Tagami, Mediators of inflammation involved in UVB erythema, Journal of Dermatological Science 23 Suppl. 1 (2000) S1S5]. In order to investigate the effect of capsiate on erythema accompanied by UV-induced inflammatory response, experiment was carried out as follows using hairless mouse. Test groups were as follows: non-treated group—treated with acetone only without UV irradiation; test group A—treated with 200 μL of 1 mM capsiate dissolved in acetone without UV irradiation; UV group—treated with acetone and UV; test group B—treated with UV and 200 μL of 1 mM capsiate dissolved in acetone every 24 hours.
After 4 times of UV irradiation every other day at an intensity of 2.5 kJ/m^2, hematoxylin-eosin staining was carried out in order to observe the change of mouse skin tissue.

## COc1cc(COC(=O)CCCC/C=C/C(C)C)ccc1O [capsiate]
ERK
  phosphorylation of ERK: inhibited
JNK
  JNK (phosphorylation): no particular change
VEGF
  UV-induced VEGF expression in the cytoplasm: decreased
MMP-9
  UV-induced mRNA expression of MMP-9: decreased
Hairless mouse (SKH-1)
  blood vessels and edema (hematoxylin-eosin staining): also decreased
  hyperplasia in the epidermis (hematoxylin-eosin staining): decreased remarkably
Hairless mouse (SKH-1); vs UV control
  blood vessel thickness and blood in back skin tissue: less blood vessel thickness and less blood
  size and depth of wound induced by UV irradiation: less severe
Ki67
  expression of Ki67 increased by UV: significantly inhibited
Hairless mouse
  thickness of the epidermis (hematoxylin-eosin staining): less thick
